Results as given in publication PMC10292217, “Gene-nutrient interactions that impact magnesium homeostasis increase risk for neural tube defects in mice exposed to dolutegravir” (Frontiers in Cell and Developmental Biology, 2023).
Like-named read-outs stand apart in the source and are kept apart here.

Assays:
rabbits = details: 2020, cited from earlier work
[1] = Plasma DTG pharmacokinetics (LC-MS/MS, NCA) in LM/Bc mice; assay type: in vivo, mouse; details: for Tmax / half-life / Cmax / AUC(0-t): female, mouse, plasma; for half-life: read-out: t½ (converted); for Cmax / AUC(0-t): high Mg2+ soy diet; for AUC(0-t): read-out: AUC 0-24
Description: Baseline blood samples were collected via cheek bleed (submandibular vein) from all animals prior to timed matings, and again on GD 9.5. A Goldenrod sterile lancet (MEDIpoint, Inc., Mineola, NY) was used to lance the submandibular vein, and 3-4 drops (∼100 µL) of blood was collected into a Microvette CB 300 Lithium Heparin plasma separator tube (SARSTEDT AG and Co., Germany) and then centrifuged at 2000 g for 8 min. Plasma samples were frozen at −80 °C for LCMS analysis of DTG or ICP-MS determination of cations. DTG detection and quantification was performed at Creighton University using a previously published method ([Bennetto-Hood et al., 2014]) with minor modifications. Briefly, a seven-point calibration curve ranging from 0.1 to 100 μg/mL was challenged with quality control vials at known concentrations of 5, 20, and 80 μg/mL. All controls and calibrators with known drug concentrations were added to DTG-free mouse plasma. To initiate protein precipitation, 120 µL of acetonitrile containing 10 ng/mL of d5- DTG internal standard (Cayman Chemical, Ann Arbor, MI) was added to 20 µL mouse plasma (calibrators, controls, unknown samples), and mixed for 2 min on an orbital shaker (1500 rpm), followed by centrifugation at 2,655 g for 5 min. […] LC-MSMS separation was achieved using Agilent 1200 liquid chromatography devices and an AB Sciex 3200 Q-Trap mass spectrometer. The mobile phase consisted of an isocratic gradient of 0.1% formic acid in water:0.1% formic acid in acetonitrile (60:40) with a flow rate of 0.475 mL/min across an XBridge C18 column (Waters, Milford, MA, United States). […] Strains and treatments were compared by 2-way ANOVA followed by post hoc analyses. Pairwise comparisons of the proportion of affected embryos in each litter between strains and treatments were evaluated by the Fisher least significant difference method. Index value pairwise comparisons were evaluated using the Kruskal–Wallis nonparametric test in Sigma XL (v9.0). Comparisons of cation levels in urine and plasma between strains and between diets as well as the effect of DTG on the incidence of NTDs in LM/Bc dams was performed by one-way ANOVA followed by Dunnett’s multiple comparisons test using GraphPad Prism version 9.5.0 for Windows. The level of significance p < 0.05 was used for all analyses. DTG pharmacokinetics were evaluated by noncompartmental analysis (NCA) using PKsolver ([Zhang et al., 2010]).

Whole rat embryos = test system: Whole rat embryos; set-up: method as in Posobiec et al., 2021; details: exposure GD 9-11; concentrations approx. 2 times plasma concentration at MRHD; ref Posobiec et al., 2021; cited from earlier work
[2] = 750 mg/kg/day, pregnant LM/Bc mice, 10 daily oral doses DTG750
[3] = 750 mg/kg/day, pregnant LM/Bc mice, 10 daily oral doses DTG750 GD 0.5-GD 9.5
[4] = 750 mg/kg, non-pregnant LM/Bc mice, single oral dose DTG750
[5] = non-pregnant LM/Bc mice, single oral dose DTG 750 mg/kg
[6] = non-pregnant mouse single dose DTG750 vs human 50 mg single dose
[7] = non-pregnant mouse single dose DTG750 vs human 100 mg single dose
[8] = non-pregnant mouse single dose DTG750 vs human 100 mg × 7d
[9] = pregnant mouse 10 daily doses DTG750 vs pregnant women 2nd trimester 50 mg/d

SMILES: C[C@@H]1CCO[C@H]2Cn3cc(C(=O)NCc4ccc(F)cc4F)c(=O)c(O)c3C(=O)N12 [DTG, Dolutegravir]
- DTG-related maternal or developmental toxicity (rabbits; oral doses up to 1000 mg/kg/d, GD 6 to GD 18, ref Stanislaus et al.): no significant evidence
- NOAEL (rabbits; preclinical studies, ref Stanislaus et al.): 1000 mg/kg/day
- Tmax [1, 2]: 2 h
- half-life [1, 2]: 4.4 h
- Cmax [1, 3]: 128 µg/mL
- AUC(0-t) [1, 3]: 847 µg·h/mL
- Tmax [1, 4]: 2 h
- half-life [1, 4]: 6.3 h
- Cmax [1, 5]: 133 µg/mL
- AUC(0-t) [1, 5]: 1300 µg·h/mL
- AUC 0-24, mouse multiplication factor vs human [1, 6]: 18.4 x
- Cmax, mouse multiplication factor vs human [1, 6]: 28.9 x
- AUC 0-24, mouse multiplication factor vs human [1, 7]: 9.9 x
- Cmax, mouse multiplication factor vs human [1, 7]: 16.4 x
- AUC 0-24, mouse multiplication factor vs human [1, 8]: 14.1 x
- Cmax, mouse multiplication factor vs human [1, 8]: 19.8 x
- AUC 0-24, mouse multiplication factor vs human [1, 9]: 17.8 x
- Cmax, mouse multiplication factor vs human [1, 9]: 35.3 x
- developmental toxicity or NTDs (Whole rat embryos): no developmental toxicity or NTDs were observed
